≈ marks a conversion by molar mass, not a printed value.

Common to all, as to assay: MIC by micro broth dilution
What all share (type): cell-based

For one assay, the system named is A. baumannii ATCC 1906. The conditions noted are these: Acinetobacter baumannii, ATCC1906, read-out: Minimum inhibitory concentration (MIC). Here is the method:
(§1) MIC of DART molecules were determined by micro broth dilution as per CLSI guidelines. Bacterial strains were cultured in Brain Heart Infusion Agar (BHIA) at 37° C. for 24 h. For MIC determination, BHI broth (100 μl) was added to each of the wells of a 96 well plate. 100 μl of broth containing drug was added to the first well (1A to 1H) and thereafter serial (double) dilutions were carried out for up to 10 wells (column 1 to column 10 of the 96 well plate). Bacterial inoculum was prepared by adjusting the bacterial culture turbidity to 0.5 McFarland standard (approximately 1.5×10^8 cells/ml) and further diluted (100 times with sterile BHI broth). Diluted bacterial suspension (100 μl) was added to each well except sterility control wells (column 12 of 96 well plate). The plates were incubated at 37° C. for 24 h. The MIC of the test compound was measured after addition of Alamar blue dye.

A further assay concerns A. baumannii CCARM 12001. To be noted: Acinetobacter baumannii, CCARM12001, read-out: Minimum inhibitory concentration (MIC). On the procedure: as §1
The subject of the next assay is A. baumannii CCARM 12020. The conditions noted are these: Acinetobacter baumannii, CCARM12020, read-out: Minimum inhibitory concentration (MIC). Here is the method:
as §1

Another assay has as its system E. aerogenes M2-1. To be noted: Klebsiella aerogenes, M21, read-out: Minimum inhibitory concentration (MIC). On the procedure: as §1
Another assay deals with E. aerogenes NCIM 5139. The conditions noted are these: Klebsiella aerogenes, NCIM5139, read-out: Minimum inhibitory concentration (MIC). Here is the method:
as §1

A further assay concerns E. coli BAA 196. The conditions noted are these: Escherichia coli, BAA196, read-out: Minimum inhibitory concentration (MIC). Here is the method:
as §1

In the next assay the test system is E. coli MTCC 1687. To be noted: Escherichia coli, MTCC1687, read-out: Minimum inhibitory concentration (MIC). Here is the method:
as §1

The subject of the next assay is E. faecium NCIM 5421. The conditions noted are these: Enterococcus faecium, NCIM5421, read-out: Minimum inhibitory concentration (MIC). Here is the method: as §1
For a further assay, the system named is K. pneumonia ATCC 13883. The conditions noted are these: for MIC: Klebsiella pneumoniae, ATCC13883, K. pneumonia ATCC 13883, read-out: Minimum inhibitory concentration (MIC). On the procedure:
as §1

Another assay deals with P. aeruginosa ATCC 27853. The conditions noted are these: Pseudomonas aeruginosa, ATCC27853, read-out: Minimum inhibitory concentration (MIC). Here is the method:
as §1

The next assay concerns P. aeruginosa CCARM 2204. To be noted: Pseudomonas aeruginosa, CCARM2204, read-out: Minimum inhibitory concentration (MIC). Here is the method: as §1
The subject of another assay is S. aureus ATCC 43300. The conditions noted are these: Staphylococcus aureus, ATCC43300; S. aureus ATCC 43300; read-out: Minimum inhibitory concentration (MIC). On the procedure: as §1
For the next assay, the system named is S. aureus CCARM 3505. The conditions noted are these: Staphylococcus aureus, CCARM3505, read-out: Minimum inhibitory concentration (MIC). On the procedure:
as §1

The test system of the next assay is S. aureus MTCC 6908. To be noted: Staphylococcus aureus, MTCC6908, read-out: Minimum inhibitory concentration (MIC). On the procedure:
as §1

The subject of assay [1] is S. epidermidis ATCC 35984. To be noted: Staphylococcus epidermidis, ATCC35984, read-out: Minimum inhibitory concentration (MIC). On the procedure:
as §1

The test system of a further assay is S. epidermidis S12-1. The conditions noted are these: Staphylococcus epidermidis, S121, read-out: Minimum inhibitory concentration (MIC). Here is the method:
as §1

In the next assay the test system is P. aeruginosa CCARM 2161. The conditions noted are these: Pseudomonas aeruginosa, CCARM2161, read-out: Minimum inhibitory concentration (MIC). Here is the method: as §1

Regarding `CC1Sc2c(C(=O)O)c(=O)c3cc(F)c(N4CCN(C(=O)NC(=N)N)CC4)cc3n21` (stereo not drawn) [Compound 44, 7-(4-(Carbamimidoylcarbamoyl)piperazin-1-yl)-6-fluoro-1-methyl-4-oxo-1H,4H-[1,3]thiazeto[3,2-a]quinoline-3-carboxylic acid], the MIC is 16 µg/mL (≈ 36.8 µM) in the assay on A. baumannii ATCC 1906; > 16 µg/mL in the assay with A. baumannii CCARM 12001; > 16 µg/mL in the assay with A. baumannii CCARM 12020; 1 µg/mL (≈ 2.3 µM) in the assay on E. aerogenes M2-1; 1 µg/mL (≈ 2.3 µM) in the assay with E. aerogenes NCIM 5139; > 16 µg/mL with E. coli BAA 196. Besides, the MIC was 0.5 µg/mL (≈ 1.15 µM) in the assay on E. coli MTCC 1687; > 16 µg/mL in the assay on E. faecium NCIM 5421; 0.12 µg/mL (≈ 0.276 µM) in the assay with K. pneumonia ATCC 13883; 4 µg/mL (≈ 9.21 µM) in the assay on P. aeruginosa ATCC 27853; > 16 µg/mL with P. aeruginosa CCARM 2204; 4 µg/mL (≈ 9.21 µM) in the assay with S. aureus ATCC 43300. Further, the MIC in the assay with S. aureus CCARM 3505 is > 16 µg/mL; with S. aureus MTCC 6908 it was 8 µg/mL (≈ 18.4 µM); in [1] it was 4 µg/mL (≈ 9.21 µM); with S. epidermidis S12-1, > 16 µg/mL.

`CC1Sc2c(C(=O)O)c(=O)c3cc(F)c(N4CCN(C(=O)c5ccccn5)CC4)cc3n21` (stereo not drawn) [Compound 31, 6-Fluoro-1-methyl-4-oxo-7-(4-picolinoylpiperazin-1-yl)-1H,4H-[1,3]thiazeto[3,2-a]quinoline-3-carboxylic acid]: the MIC in the assay on A. baumannii ATCC 1906 turned out to be 2 µg/mL (≈ 4.4 µM); with E. aerogenes M2-1, 8 µg/mL (≈ 17.6 µM); with E. aerogenes NCIM 5139 it was 1 µg/mL (≈ 2.2 µM); in the assay on E. coli BAA 196, 4 µg/mL (≈ 8.8 µM); in the assay with E. coli MTCC 1687, 2 µg/mL (≈ 4.4 µM); in the assay on E. faecium NCIM 5421, 0.06 µg/mL (≈ 0.132 µM). Further, the MIC in the assay with K. pneumonia ATCC 13883 was found to be 0.12 µg/mL (≈ 0.264 µM); with P. aeruginosa ATCC 27853, 8 µg/mL (≈ 17.6 µM); in the assay on S. aureus ATCC 43300, 0.25 µg/mL (≈ 0.55 µM); in the assay on S. aureus CCARM 3505, 16 µg/mL (≈ 35.2 µM); with S. aureus MTCC 6908 it was 0.5 µg/mL (≈ 1.1 µM); in [1] it was 0.13 µg/mL (≈ 0.286 µM). The MIC in the assay on S. epidermidis S12-1 is 8 µg/mL (≈ 17.6 µM). Further, the activity in words result in the assay on K. pneumonia ATCC 13883 (Klebsiella pneumonia (susceptible)) is reported as “active”.

Consider `CC1Sc2c(C(=O)O)c(=O)c3cc(F)c(N4CCN(C(=O)c5cccc[n+]5[O-])CC4)cc3n21` (stereo not drawn) [Compound 34, 2-(4-(3-Carboxy-6-fluoro-1-methyl-4-oxo-1H,4H-[1,3]thiazeto[3,2-a]quinolin-7-yl)piperazine-1-carbonyl)pyridine-1-oxide], for which the MIC was > 16 µg/mL with E. coli BAA 196; > 16 µg/mL in the assay on E. coli MTCC 1687; 1 µg/mL (≈ 2.13 µM) in the assay on E. faecium NCIM 5421; 0.13 µg/mL (≈ 0.276 µM) in the assay on S. aureus ATCC 43300; 8 µg/mL (≈ 17 µM) in the assay on S. aureus CCARM 3505; 4 µg/mL (≈ 8.5 µM) in the assay on S. aureus MTCC 6908. Also, the MIC in assay [1] was 0.13 µg/mL (≈ 0.276 µM); with S. epidermidis S12-1 it was 8 µg/mL (≈ 17 µM).

`Cc1ncc([N+](=O)[O-])n1CC(O)CN1CCN(c2cc3c(cc2F)c(=O)c(C(=O)O)c2n3C(C)S2)CC1` (stereo not drawn) [Compound 1]: the MIC is > 16 µg/mL in the assay with A. baumannii ATCC 1906; > 16 µg/mL in the assay with A. baumannii CCARM 12001; > 16 µg/mL in the assay with A. baumannii CCARM 12020; > 16 µg/mL in the assay with E. aerogenes M2-1; > 16 µg/mL in the assay with E. aerogenes NCIM 5139; 16 µg/mL (≈ 30 µM) in the assay with E. coli BAA 196. The MIC with E. coli MTCC 1687 was 16 µg/mL (≈ 30 µM); in the assay with E. faecium NCIM 5421, > 16 µg/mL; in the assay with P. aeruginosa ATCC 27853, > 16 µg/mL; in the assay with P. aeruginosa CCARM 2161, > 16 µg/mL; with P. aeruginosa CCARM 2204, > 16 µg/mL; in the assay with S. aureus ATCC 43300 it was 1 µg/mL (≈ 1.88 µM). The MIC in the assay with S. aureus CCARM 3505 was 32 µg/mL (≈ 60.1 µM); in the assay with S. aureus MTCC 6908, 1.5 µg/mL (≈ 2.82 µM); in assay [1], 0.13 µg/mL (≈ 0.244 µM); in the assay on S. epidermidis S12-1, > 64 µg/mL.

Values taken from patent publication US10570152B2, “Antibacterial therapeutics and prophylactics” (VYOME BIOSCIENCES PVT. LTD., priority 2015, dated 2020).
